Laboratory results published in patent US5912251A, “Metabolically inert anti-inflammatory and anti-tumor antifolates” (priority 1998, dated 1999).

Key:
[1] = biological target: T1, human dihydrofolate Reductase (Homo sapiens, UniProt P00374); assay: inhibition of human dihydrofolate reductase; format: biochemical; conditions: human enzyme; read-out: I50
T1 sequence (P00374 1-187): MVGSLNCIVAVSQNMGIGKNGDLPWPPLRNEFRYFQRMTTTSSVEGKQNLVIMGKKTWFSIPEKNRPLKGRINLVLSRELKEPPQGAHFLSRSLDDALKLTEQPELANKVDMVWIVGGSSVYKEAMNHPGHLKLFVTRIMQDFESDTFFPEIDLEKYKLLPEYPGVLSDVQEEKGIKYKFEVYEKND
Source text: In order to unravel the mechanism of action of 1 and 1 e they were examined as inhibitors of human dihydrofolate Reductase.

[2] = tested on: rabbit liver aldehyde oxidase; assay: incubation with rabbit liver aldehyde oxidase (conversion to 7-hydroxy derivative); format: in vitro ADME
[3] = tested on: carboxypeptidase derived from Pseudomonad sp
Source text: (§1) As part of a continuing program aimed at the development of less toxic and more specific antifolate drugs for the treatment of human cancers, the pteridine ring of the experimental anticancer drug methylene-10-deazaaminopterin [MDAM] was replaced with a quinazoline ring.

[4] = tested on: folylpolyglutamate synthetase; assay: evaluation in vitro using folylpolyglutamate synthetase (polyglutamylation); format: in vitro ADME
[5] = tested on: human leukemia and human solid tumor cells; assay: inhibitory activity against the growth of human cancer cells in culture; format: cell-based
[6] = tested on: leukemia cells that are resistant to MTX by virtue of defective polyglutamylation; assay: growth inhibition of MTX-resistant leukemia cells with defective polyglutamylation vs wild type CCRF-CEM; format: cell-based; conditions: defective polyglutamylation line compared to wild type MTX sensitive parental CCRF-CEM
Source text: as §1

allergic rabbits = assay: allergen-induced asthmatic responses and bronchial hyper-responsiveness (BHR) in allergic rabbits; format: in vivo, New Zealand White rabbit; conditions: for Asthmatic Response, Early: percent inhibition from control / Asthmatic Response, Late: percent inhibition from control / BHR (bronchial hyper-responsiveness): percent inhibition from control: aerosol 5 mg/ml; for Asthmatic Response, Early: percent inhibition from control: early-phase area under the curve; for Asthmatic Response, Late: percent inhibition from control: late-phase area under the curve; for BHR (bronchial hyper-responsiveness): percent inhibition from control: repeat histamine challenge 24 hour later
Protocol: Experimental Model: Induction of Asthma in Rabbits. New Zealand White Pasturella-free rabbit litter mates were bred and immunized ip within 24 hour of birth with 312 AU dust mite allergen extract [Berkeley Biological, Berkeley, Calif.] in 10% kaolin once every week for one month, then biweekly until the age of 4 months. Mustafa and co-workers used this rabbit model as described in American Journal of Physiology [266, 271-277, 1994]. These allergic animals preferentially produce allergen-specific IgE antibody and typically respond to aeroallergen challenge with an early and late phase asthmatic response and show increased bronchial hyper responsiveness (BHR).
Allergen, Theophylline and Antifolate Challenges: These experiments were carried out as described by Mustafa and co-workers in the Journal, Agents and Actions in 1992 [37, 168-170, 1992 ]. Briefly, allergic rabbits were challenged with ragweed allergen aerosol (10,000 PNU/mL) as described until there was an approximate 50% reduction in dynamic compliance (Cdyn). Pulmonary function was measured at 15 minutes intervals for 6 hours. The rabbit was challenged with indicated antifolates [5 mg/mL, aerosolized for 4 minutes ] followed immediately by the same total dose of allergen. Pulmonary function measurements as described by Mustafa and co-workers in the cited reference were carried out for 6 hours.
To assess the effect of antifolates on allergen-induced changes in the airways, the area under the curve for early and late -phase response was digitalized by computer-assisted plenometry for each rabbit during the six hour time period.

CCRF-CEM = assay: Human Disease Oriented in vitro Antitumor Screen (NCI), total growth inhibition, CCRF-CEM; format: cell-based; conditions: Leukemia
Protocol: (§2) Compound 1 was evaluated for its anti-tumor activity using the Human Disease Oriented in vitro Antitumor Screen at the National Cancer Institute.

K562 = assay: Human Disease Oriented in vitro Antitumor Screen (NCI), total growth inhibition, K562; format: cell-based; conditions: Leukemia
Protocol: as §2

MOLT-4 = assay: Human Disease Oriented in vitro Antitumor Screen (NCI), total growth inhibition, MOLT-4; format: cell-based; conditions: Leukemia
Protocol: as §2

RPMI 8226 = assay: Human Disease Oriented in vitro Antitumor Screen (NCI), total growth inhibition, RPMI 8226; format: cell-based; conditions: Leukemia
Protocol: as §2

SR = assay: Human Disease Oriented in vitro Antitumor Screen (NCI), total growth inhibition, SR; format: cell-based; conditions: Leukemia
Protocol: as §2

SF 539 = assay: Human Disease Oriented in vitro Antitumor Screen (NCI), total growth inhibition, SF 539; format: cell-based; conditions: CNS Cancer
Protocol: as §2

MCF7 = assay: Human Disease Oriented in vitro Antitumor Screen (NCI), total growth inhibition, MCF7; format: cell-based; conditions: Breast Cancer
Protocol: as §2

MCF7-ADR-RES = assay: Human Disease Oriented in vitro Antitumor Screen (NCI), total growth inhibition, MCF7-ADR-RES; format: cell-based; conditions: Breast Cancer
Protocol: as §2

[7] = tested on: selected human tumor cells; assay: Human Disease Oriented in vitro Antitumor Screen (NCI), panel as a whole; format: cell-based
Protocol: Compound 1 was evaluated for its anti-tumor activity using the Human Disease Oriented in vitro Antitumor Screen at the National Cancer Institute. […] This unexpected finding may be due to the inability of 1 to undergo metabolic transformation.

| SMILES | removal of the 4-methyleneglutamate moiety by carboxypeptidase [3] | Asthmatic Response, Early: percent inhibition from control (allergic rabbits) | Asthmatic Response, Late: percent inhibition from control (allergic rabbits) | BHR (bronchial hyper-responsiveness): percent inhibition from control (allergic rabbits) | Log 10 TGI (CCRF-CEM) | Log 10 TGI (K562) | Log 10 TGI (MOLT-4) | Log 10 TGI (RPMI 8226) | Log 10 TGI (SR) | Log 10 TGI (SF 539) | also measured |
| --- | --- | --- | --- | --- | --- | --- | --- | --- | --- | --- | --- |
| C=C(CC(NC(=O)c1ccc(CCc2ccc3nc(N)nc(N)c3c2)cc1)C(=O)O)C(=O)O (stereo not shown) [Compound 1, 5,8,10-trideaza-4'-methyleneaminopterin] | failed to remove the 4-methyleneglutamate moiety | 52% | 58% | 47% | < -8.00 | < -8.00 | -7.4 | -7.44 | < -8.00 | -6.3 | IC50 [1]: 66 nM; conversion to 7-hydroxy derivative by aldehyde oxidase [2]: completely inert; elaboration to polyglutamates [4]: not capable of elaboration to its polyglutamates; inhibitory activity against the growth of human cancer cells relative to MTX or MDAM [5]: strikingly more active than either MTX or MDAM; killing of human leukemia and solid tumor cells in culture ([5]; therapeutically relevant concentrations): able to kill a large number of human luekemia and human solid tumor cells in culture at therapeutically relevant concentrations; collateral sensitivity: times more sensitive in inhibiting the growth of MTX-resistant leukemia cells [6]: 4-5 times; anti-asthmatic activity (in words) (allergic rabbits; relative to MTX and theophylline): not only superior to MTX but also to the well known anti-asthmatic drug theophylline in both early and late asthmatic responses and bronchial hyper responsiveness (BHR); Log 10 TGI (MCF7): -6.32; Log 10 TGI (MCF7-ADR-RES): -7.26; killing of cancer cells (in words) ([7]; NCI in vitro antitumor screen): able to kill cancer cells with remarkable potency; times more effective than MTX in this panel ([7]; total growth inhibition, NCI panel of Table 2): 1,000-10,000 times |
| C=C(CC(NC(=O)c1ccc(N(C)Cc2ccc3nc(N)nc(N)c3c2)cc1)C(=O)O)C(=O)O (stereo not shown) [Compound 1d] | failed to remove the 4-methyleneglutamate moiety |  |  |  |  |  |  |  |  |  |  |
| CN(Cc1cnc2nc(N)nc(N)c2n1)c1ccc(C(=O)N[C@@H](CCC(=O)O)C(=O)O)cc1 [MTX, methotrexate, reference compound] |  | 29% | 37% | 32% | -3.77 | -3.3 | -3.55 | -3.66 | -3.25 | -3.66 |  |
| Cn1c(=O)c2[nH]cnc2n(C)c1=O [Theophylline, theophylline] |  | 45% | 49% | 39% |  |  |  |  |  |  |  |
